Source: US20230321123A1, “INHIBITORS OF PSEUDOMONAS AERUGINOSA VIRULENCE FACTOR LasB” (Helmholtz-Zentrum Für Infektionsforschung GmbH, priority 2020, published 2023)

Key:
[1] = target: CYP3A4 (Homo sapiens, UniProt P08684); experiment: CYP inhibition CYP3A4; type: in vitro ADME
Text: (§1) As the compound of example 2 has shown an impressive activity in the in vitro LasB inhibition assay, high selectivity over a broad spectrum of human enzymes and no signs of cytotoxicity in vitro, it has been subjected to a more advanced safety screening (Table 9).

[2] = mini-Ames reverse mutation assay; type: cell-based; settings: up to 125 μg/mL
Text: as §1

[3] = Cytotoxicity HEK293; type: cell-based; settings: human; HEK293
Procedure: (§2) The compounds of examples 1 and 5 were not toxic against the cell lines HepG2, HEK293 and A549 (Table 5). Additionally, the inhibitory effect against P. aeruginosa PA14 was evaluated to exclude an antibacterial effect of the compounds of the present invention. This is important as it was the aim to target virulence and not viability of the bacteria. […]

[4] = Cytotoxicity A549; type: cell-based; settings: human; A549
Procedure: as §2

[5] = target: CYP2C19 (Homo sapiens, UniProt P33261); experiment: CYP inhibition CYP2C19; type: in vitro ADME
Chain of CYP2C19 (P33261 whole entry): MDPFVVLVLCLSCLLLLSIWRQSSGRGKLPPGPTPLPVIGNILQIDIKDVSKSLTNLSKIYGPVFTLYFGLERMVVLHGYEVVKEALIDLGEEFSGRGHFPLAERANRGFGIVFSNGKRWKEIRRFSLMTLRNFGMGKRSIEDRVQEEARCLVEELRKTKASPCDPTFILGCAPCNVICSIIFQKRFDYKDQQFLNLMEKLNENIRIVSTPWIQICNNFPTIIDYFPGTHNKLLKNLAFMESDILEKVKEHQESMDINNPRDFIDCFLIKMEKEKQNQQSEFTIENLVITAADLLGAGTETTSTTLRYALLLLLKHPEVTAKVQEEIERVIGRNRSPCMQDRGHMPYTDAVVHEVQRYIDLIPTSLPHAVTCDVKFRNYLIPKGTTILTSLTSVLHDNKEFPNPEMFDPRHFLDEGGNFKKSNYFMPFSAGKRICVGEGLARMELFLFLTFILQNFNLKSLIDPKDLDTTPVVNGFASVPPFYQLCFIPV
Text: as §1

[6] = Cytotoxicity HepG2; type: cell-based; settings: human; HepG2
Procedure: as §2

[7] = target: LasB (Pseudomonas aeruginosa, UniProt Q02RJ6); experiment: biochemical; set-up: species or system P. aeruginosa; settings: IC50 against LasB
Chain of LasB (Q02RJ6 198-498): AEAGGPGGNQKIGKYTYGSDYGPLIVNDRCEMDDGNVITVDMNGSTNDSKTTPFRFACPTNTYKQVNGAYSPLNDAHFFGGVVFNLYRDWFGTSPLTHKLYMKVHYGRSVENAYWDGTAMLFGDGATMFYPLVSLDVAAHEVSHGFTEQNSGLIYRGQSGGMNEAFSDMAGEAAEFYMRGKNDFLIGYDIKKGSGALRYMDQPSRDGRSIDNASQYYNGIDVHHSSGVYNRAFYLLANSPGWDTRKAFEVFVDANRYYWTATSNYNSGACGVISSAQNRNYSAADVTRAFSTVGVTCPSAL

[8] = target: MMP-14 (Homo sapiens, UniProt P50281); experiment: Selectivity against human off-targets: MMP-14; type: biochemical; settings: read-out: Inhibition [%] MMP-14
Text: (§3) The inhibition of zinc-containing human enzymes is described frequently for LasB inhibitors and poses a serious difficulty in the development of selective compounds. Particularly, the inhibition of matrix metalloproteases (MMPs) should be avoided. To further investigate this issue, three derivatives (the compounds of examples 1, 5 and 8) have been tested for their selectivity against several human off-targets, including six MMPs, ADAM17 (TACE), HDAC-3 and HDAC-8 (Table 4). The selectivity of the compounds is particularly high for MMPs and HDACs, whereas the inhibition of ADAM17 was considerably stronger.

[9] = target: MMP-3 (Homo sapiens, UniProt P08254); experiment: Selectivity against human off-targets: MMP-3; type: biochemical; settings: read-out: Inhibition [%] MMP-3
Chain of MMP-3 (P08254 100-477): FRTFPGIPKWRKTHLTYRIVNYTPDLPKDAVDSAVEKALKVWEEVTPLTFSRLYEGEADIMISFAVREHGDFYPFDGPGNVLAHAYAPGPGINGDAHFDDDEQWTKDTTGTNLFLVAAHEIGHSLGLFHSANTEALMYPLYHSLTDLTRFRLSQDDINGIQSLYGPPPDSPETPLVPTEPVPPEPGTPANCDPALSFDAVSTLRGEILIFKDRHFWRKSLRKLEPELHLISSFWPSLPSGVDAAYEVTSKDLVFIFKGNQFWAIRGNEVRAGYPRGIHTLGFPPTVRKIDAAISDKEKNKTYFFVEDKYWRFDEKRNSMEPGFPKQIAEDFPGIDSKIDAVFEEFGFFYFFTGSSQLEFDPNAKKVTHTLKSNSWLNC
Text: as §3

[10] = target: T1, HDAC-8 (Homo sapiens, UniProt Q9BY41); experiment: Selectivity against human off-targets: HDAC-8; type: biochemical; settings: read-out: IC50 HDAC-8
T1 sequence (Q9BY41 1-377): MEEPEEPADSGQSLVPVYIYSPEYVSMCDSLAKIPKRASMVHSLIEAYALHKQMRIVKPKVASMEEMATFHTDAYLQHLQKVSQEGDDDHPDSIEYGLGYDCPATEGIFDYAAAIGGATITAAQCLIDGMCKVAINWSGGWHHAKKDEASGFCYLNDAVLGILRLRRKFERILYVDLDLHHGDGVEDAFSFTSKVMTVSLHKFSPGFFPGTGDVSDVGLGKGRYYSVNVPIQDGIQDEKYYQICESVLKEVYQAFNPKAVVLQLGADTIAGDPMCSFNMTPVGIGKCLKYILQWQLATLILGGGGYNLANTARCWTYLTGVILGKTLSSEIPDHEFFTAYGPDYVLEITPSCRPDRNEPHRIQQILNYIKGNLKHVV
Text: as §3

[11] = target: T2, CYP1A (Homo sapiens, UniProt P05177); experiment: CYP inhibition CYP1A; type: in vitro ADME
T2 sequence (P05177 2-516): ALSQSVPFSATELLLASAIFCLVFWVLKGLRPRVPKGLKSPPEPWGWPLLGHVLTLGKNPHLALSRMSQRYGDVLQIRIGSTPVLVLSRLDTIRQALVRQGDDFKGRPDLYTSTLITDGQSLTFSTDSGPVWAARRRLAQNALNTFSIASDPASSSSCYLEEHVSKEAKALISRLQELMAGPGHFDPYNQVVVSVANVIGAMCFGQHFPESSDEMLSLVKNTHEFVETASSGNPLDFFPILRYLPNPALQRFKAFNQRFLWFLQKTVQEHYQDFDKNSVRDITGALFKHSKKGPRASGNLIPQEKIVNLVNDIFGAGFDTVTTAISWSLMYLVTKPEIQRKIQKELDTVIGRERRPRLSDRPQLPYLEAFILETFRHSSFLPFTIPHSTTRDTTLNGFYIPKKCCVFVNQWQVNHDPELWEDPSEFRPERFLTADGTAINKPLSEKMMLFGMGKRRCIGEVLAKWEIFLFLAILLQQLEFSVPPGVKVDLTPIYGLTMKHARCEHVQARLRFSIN
Text: as §1

[12] = target: T3, MMP-2 (Homo sapiens, UniProt P08253); experiment: Selectivity against human off-targets: MMP-2; type: biochemical; settings: read-out: Inhibition [%] MMP-2
T3 sequence (P08253 110-660): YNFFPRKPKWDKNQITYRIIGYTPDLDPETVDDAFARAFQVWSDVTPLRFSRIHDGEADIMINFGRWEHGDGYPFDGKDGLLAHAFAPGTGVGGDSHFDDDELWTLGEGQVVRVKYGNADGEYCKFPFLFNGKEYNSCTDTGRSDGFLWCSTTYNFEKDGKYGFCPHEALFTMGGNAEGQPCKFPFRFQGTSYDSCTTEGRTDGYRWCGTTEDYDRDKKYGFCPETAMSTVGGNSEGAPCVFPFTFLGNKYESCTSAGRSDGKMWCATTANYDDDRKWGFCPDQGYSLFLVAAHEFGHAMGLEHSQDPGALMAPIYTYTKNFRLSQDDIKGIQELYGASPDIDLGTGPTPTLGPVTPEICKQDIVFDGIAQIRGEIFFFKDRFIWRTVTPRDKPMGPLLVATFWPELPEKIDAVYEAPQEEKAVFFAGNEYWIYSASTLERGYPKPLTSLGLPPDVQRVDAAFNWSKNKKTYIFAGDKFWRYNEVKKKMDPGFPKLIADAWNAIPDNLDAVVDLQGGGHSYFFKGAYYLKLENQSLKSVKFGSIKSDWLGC
Text: as §3

[13] = target: CYP2C9 (Homo sapiens, UniProt P11712); experiment: CYP inhibition CYP2C9; type: in vitro ADME
Chain of CYP2C9 (P11712 whole entry): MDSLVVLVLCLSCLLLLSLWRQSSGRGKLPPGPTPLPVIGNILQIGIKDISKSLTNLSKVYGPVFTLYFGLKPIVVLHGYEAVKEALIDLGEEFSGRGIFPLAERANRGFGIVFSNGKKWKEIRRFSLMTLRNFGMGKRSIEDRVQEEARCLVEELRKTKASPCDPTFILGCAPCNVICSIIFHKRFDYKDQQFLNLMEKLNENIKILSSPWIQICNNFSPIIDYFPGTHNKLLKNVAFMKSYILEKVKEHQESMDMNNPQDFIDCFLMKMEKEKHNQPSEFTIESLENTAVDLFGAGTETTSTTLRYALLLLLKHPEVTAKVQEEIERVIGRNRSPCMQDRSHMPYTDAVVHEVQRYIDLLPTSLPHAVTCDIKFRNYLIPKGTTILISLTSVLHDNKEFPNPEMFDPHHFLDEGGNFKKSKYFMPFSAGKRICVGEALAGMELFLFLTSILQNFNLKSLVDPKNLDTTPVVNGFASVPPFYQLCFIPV
Text: as §1

[14] = target: hERG potassium channel (Homo sapiens, UniProt Q12809); experiment: hERG inhibition; type: biochemical
Chain of hERG potassium channel (Q12809 whole entry): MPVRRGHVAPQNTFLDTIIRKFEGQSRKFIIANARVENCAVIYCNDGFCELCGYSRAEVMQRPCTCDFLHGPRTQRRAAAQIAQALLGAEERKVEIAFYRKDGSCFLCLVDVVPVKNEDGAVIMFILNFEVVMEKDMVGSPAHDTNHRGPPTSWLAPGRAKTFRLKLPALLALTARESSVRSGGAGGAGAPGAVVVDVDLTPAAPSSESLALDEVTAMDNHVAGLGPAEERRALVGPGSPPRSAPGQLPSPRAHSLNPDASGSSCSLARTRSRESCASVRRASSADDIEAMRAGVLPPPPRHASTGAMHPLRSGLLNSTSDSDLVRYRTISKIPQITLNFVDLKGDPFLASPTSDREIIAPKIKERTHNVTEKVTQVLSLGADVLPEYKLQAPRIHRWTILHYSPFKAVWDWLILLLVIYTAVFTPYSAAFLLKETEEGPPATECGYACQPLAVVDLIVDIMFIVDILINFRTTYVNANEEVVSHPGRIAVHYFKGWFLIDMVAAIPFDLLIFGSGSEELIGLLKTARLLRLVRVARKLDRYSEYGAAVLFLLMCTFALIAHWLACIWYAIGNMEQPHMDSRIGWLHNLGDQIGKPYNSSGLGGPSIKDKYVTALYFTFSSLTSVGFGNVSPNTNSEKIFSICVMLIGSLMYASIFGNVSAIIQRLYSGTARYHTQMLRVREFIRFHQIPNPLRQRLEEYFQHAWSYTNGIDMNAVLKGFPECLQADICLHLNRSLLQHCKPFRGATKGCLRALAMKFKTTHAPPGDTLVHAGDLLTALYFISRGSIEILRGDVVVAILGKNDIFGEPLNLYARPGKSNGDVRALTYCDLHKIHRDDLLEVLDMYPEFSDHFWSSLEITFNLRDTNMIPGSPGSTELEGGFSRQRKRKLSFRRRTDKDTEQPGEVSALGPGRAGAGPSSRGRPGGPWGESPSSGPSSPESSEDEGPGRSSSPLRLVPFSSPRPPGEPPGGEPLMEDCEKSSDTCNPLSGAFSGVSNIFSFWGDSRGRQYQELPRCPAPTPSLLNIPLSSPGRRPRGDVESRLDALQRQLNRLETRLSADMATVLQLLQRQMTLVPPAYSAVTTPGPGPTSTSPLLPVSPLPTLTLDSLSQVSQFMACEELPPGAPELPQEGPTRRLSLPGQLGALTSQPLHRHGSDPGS
Text: as §1

Chain of CYP3A4 (P08684 whole entry): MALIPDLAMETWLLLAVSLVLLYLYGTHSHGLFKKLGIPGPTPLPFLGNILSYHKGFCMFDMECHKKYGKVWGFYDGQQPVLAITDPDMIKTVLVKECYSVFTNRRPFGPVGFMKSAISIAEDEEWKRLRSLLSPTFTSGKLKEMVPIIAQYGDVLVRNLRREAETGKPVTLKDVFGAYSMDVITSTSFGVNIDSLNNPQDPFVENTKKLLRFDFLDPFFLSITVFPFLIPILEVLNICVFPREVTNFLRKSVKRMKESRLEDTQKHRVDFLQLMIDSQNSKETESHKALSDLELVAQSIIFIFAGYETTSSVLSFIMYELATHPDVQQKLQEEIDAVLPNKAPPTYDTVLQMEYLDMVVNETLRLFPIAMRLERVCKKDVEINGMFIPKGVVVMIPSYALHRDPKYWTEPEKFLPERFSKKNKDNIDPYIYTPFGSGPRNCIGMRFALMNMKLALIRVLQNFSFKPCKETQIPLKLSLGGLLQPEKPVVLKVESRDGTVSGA

For `Cc1ccc(NC(=O)C(S)CC(C)C)cc1` (stereo not drawn) [Example 2, 2-Mercapto-4-methyl-N-(p-tolyl)pentanamide], the melting point was 90 °C, the IC50 [1] was 15 µM and the Mini-Ames genotoxicity [2] was “no genotoxicity and No”. It also gave an IC50 [3] greater than 50 µM, an IC50 [4] greater than 100 µM and an IC50 [5] of 1 µM. It also gave an IC50 [6] greater than 100 µM, an IC50 [7] of 0.4 ± 0.13 µM and an inhibition at 100 µM [8] of less than 10%. It also gave an inhibition at 100 µM [9] of less than 10%, an IC50 [10] greater than 100 µM and an IC50 [11] greater than 25 µM. It also gave an inhibition at 100 µM [12] of less than 10%, an IC50 [13] greater than 25 µM and an IC50 [14] greater than 10 µM.
